Read-outs that look alike come from different tables or passages of the source. Bridge positions count the residues as written; N and C are the ends. Square brackets hold non-standard residues; d marks the D form. Peptide text beside a SMILES is read from it. d2Nal = N[C@H](Cc1ccc2ccccc2c1)C(=O)O; Bta = N[C@@H](Cc1csc2ccccc12)C(=O)O; Nle = CCCC[C@H](N)C(=O)O; Ava = NCCCCC(=O)O; βAla = NCCC(=O)O

What all share (experiment): cyclic AMP bioassay (ECL) in CHO-K1 cells
Assay type in all cases: cell-based

One test deals with T1, hMC1-R (Homo sapiens, UniProt Q01726).
T1 construct: expressed in transfected cells; host or cells: CHO-K1
T1 sequence (Q01726 whole entry): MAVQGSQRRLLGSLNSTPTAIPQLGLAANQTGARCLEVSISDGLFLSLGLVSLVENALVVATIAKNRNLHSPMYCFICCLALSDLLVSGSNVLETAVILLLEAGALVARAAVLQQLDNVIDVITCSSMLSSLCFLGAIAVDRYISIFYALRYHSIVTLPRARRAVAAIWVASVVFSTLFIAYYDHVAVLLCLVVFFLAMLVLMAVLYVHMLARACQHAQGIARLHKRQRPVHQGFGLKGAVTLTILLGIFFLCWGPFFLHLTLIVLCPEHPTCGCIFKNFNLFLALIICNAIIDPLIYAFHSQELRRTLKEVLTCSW

The target of a further test is T2, hMC3-R (Homo sapiens, UniProt P41968).
T2 construct: expressed in transfected cells; host or cells: CHO-K1
T2 sequence (P41968 whole entry): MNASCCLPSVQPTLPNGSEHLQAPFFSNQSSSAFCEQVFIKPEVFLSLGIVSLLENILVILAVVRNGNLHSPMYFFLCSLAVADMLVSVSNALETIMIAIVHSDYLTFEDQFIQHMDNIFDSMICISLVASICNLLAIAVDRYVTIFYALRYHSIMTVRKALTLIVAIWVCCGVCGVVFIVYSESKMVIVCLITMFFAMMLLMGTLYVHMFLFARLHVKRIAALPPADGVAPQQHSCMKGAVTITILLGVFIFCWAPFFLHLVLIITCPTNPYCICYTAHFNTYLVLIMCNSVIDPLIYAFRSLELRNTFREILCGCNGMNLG

The target in another test is T3, hMC4-R (Homo sapiens, UniProt P32245).
T3 construct: expressed in transfected cells; host or cells: CHO-K1
T3 sequence (P32245 whole entry): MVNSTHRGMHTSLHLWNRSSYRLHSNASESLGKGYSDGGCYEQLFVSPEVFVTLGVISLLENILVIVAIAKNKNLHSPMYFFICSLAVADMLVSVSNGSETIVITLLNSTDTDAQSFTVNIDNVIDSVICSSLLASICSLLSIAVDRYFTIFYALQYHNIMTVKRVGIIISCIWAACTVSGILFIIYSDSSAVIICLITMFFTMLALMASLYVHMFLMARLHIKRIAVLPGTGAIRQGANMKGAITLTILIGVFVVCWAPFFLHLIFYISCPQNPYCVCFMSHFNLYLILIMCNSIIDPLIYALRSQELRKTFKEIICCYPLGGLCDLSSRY

For a further test, the target named is T4, hMC5-R (Homo sapiens, UniProt P33032).
T4 construct: expressed in transfected cells; host or cells: CHO-K1
T4 sequence (P33032 whole entry): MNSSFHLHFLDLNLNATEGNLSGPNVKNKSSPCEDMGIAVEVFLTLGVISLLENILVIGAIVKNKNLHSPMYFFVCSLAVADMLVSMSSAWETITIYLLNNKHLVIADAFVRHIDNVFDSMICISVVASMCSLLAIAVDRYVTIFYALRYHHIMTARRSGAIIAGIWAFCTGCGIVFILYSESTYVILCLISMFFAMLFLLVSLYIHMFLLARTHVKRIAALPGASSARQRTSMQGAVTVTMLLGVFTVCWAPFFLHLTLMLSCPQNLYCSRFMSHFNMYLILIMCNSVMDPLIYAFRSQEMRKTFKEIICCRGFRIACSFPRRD

[1] abbreviates: Table 9A/9B, read-out: EC50 hMC1-R.
Setting [2] is: Table 9A/9B, read-out: EC50 hMC3-R.
Where [3] appears, read: Table 9A/9B, read-out: EC50 hMC4-R.
The mark [4] stands for this setting: Table 9A/9B, read-out: EC50 hMC5-R.

Protocol for hMC1-R: Intracellular cyclic AMP (cAMP) levels were determined by an electrochemiluminescence (ECL) assay (Meso Scale Discovery®, Gaithersburg, Md.; referred to hereinafter as MSD). […] Transgenic CHO-K1 cells stably expressing hMC receptor subtypes 1, 3, 4 or 5 were dispensed at a density of approximately 7,000 cells/well in 384-well Multi-Array®plates (MSD) containing integrated carbon electrodes and coated with anti-cAMP antibody. Increasing concentrations of the test compounds were added and the cells were incubated for approximately 40 minutes at approximately 37° C. […] At the end of the second incubation period read buffer (Tris-buffered solution containing an ECL co-reactant and Triton X-100 at ph 7.8) was added and the cAMP levels in the cell lysates were immediately determined by ECL detection with a Sector Imager 6000 Reader® (MSD). Data were analyzed using a computer-assisted non-linear regression analysis (XL fit; IDBS) and reported as either an EC50 value or a Kb value.
The Kb value reflects the potency of an antagonist and is determined by Schild analysis. In brief, concentration-response curves of an agonist are carried out in the presence of increasing concentrations of an antagonist. […] It is calculated by extrapolating the line on a Schild plot to zero on the y-axis.

For orientation: EC50 means the concentration at which the effect is half-maximal. For the compound `CC(=O)N[C@H]1CSSC[C@@H](C(=O)N2CCC[C@H]2C(=O)N2CCC[C@H]2C(=O)N[C@@H](CCCCN)C(=O)N[C@@H](CC(=O)O)C(=O)NCCC(=O)N[C@@H](CCCNC(=N)N)C(=O)N[C@@H](CCCNC(=N)N)C(=O)N[C@@H](CCCNC(=N)N)C(=O)N[C@@H](CCCNC(=N)N)C(=O)N[C@@H](CCCNC(=N)N)C(=O)N[C@@H](CCC(N)=O)C(=O)N[C@@H](CCCNC(=N)N)C(=O)N[C@@H](CCCNC(=N)N)C(=O)N[C@@H](CCCNC(=N)N)C(N)=O)NC(=O)[C@H](C)NC(=O)[C@H](Cc2csc3ccccc23)NC(=O)[C@H](CCCNC(=N)N)NC(=O)[C@@H](Cc2ccc3ccccc3c2)NC(=O)[C@H](Cc2c[nH]cn2)NC(=O)[C@H](CCC(=O)O)NC1=O`, the EC50 was 52 nM at hMC1-R and 328 nM at hMC5-R. The values for the Kb on hMC3-R and on hMC4-R were 170 nM and 6.14 nM, respectively.

With `CCCC[C@H](NC(C)=O)C(=O)N[C@H]1CC(=O)NCCCC[C@@H](C(N)=O)NC(=O)CCCNC(=O)[C@H](Cc2c[nH]c3ccccc23)NC(=O)[C@H](CCCNC(=N)N)NC(=O)[C@@H](Cc2ccccc2)NC(=O)[C@H](Cc2c[nH]cn2)NC1=O` [Ac-Nle-c(Asp-His-D-Phe-Arg-Trp-Gaba-Lys)-NH2], the EC50 was 1.37 nM at hMC1-R (setting [1]), 0.628 nM on hMC3-R (setting [2]), 0.131 nM on hMC4-R (setting [3]) and 3.48 nM on hMC5-R (setting [4]).

In the case of `CCCC[C@H](NC(C)=O)C(=O)N[C@H]1CSSC[C@@H](C(N)=O)NC(=O)CCCCNC(=O)[C@H](Cc2c[nH]c3ccccc23)NC(=O)[C@H](CCCNC(=N)N)NC(=O)[C@@H](Cc2ccccc2)NC(=O)[C@H](Cc2c[nH]cn2)NC1=O` [Ac-Nle-c(Cys-His-D-Phe-Arg-Trp-Apn-Cys)-NH2] (Ac-[Nle]CH[dF]RW[Ava]C-NH2; disulfide 2-8), the EC50 at hMC1-R (setting [1]) amounted to 0.76 nM; on hMC3-R (setting [2]) it was 0.199 nM; on hMC4-R (setting [3]), 0.0492 nM; at hMC5-R (setting [4]) it was 1.73 nM.

Consider `CC(=O)N[C@H]1CSSC[C@@H](C(=O)N2CCC[C@H]2C(=O)N2CCC[C@H]2C(=O)N[C@@H](CCCCN)C(=O)N[C@@H](CC(=O)O)C(=O)NCCC(=O)NCC(=O)N[C@@H](CCCNC(=N)N)C(=O)N[C@@H](CCCNC(=N)N)C(=O)N[C@@H](CCCCN)C(=O)N[C@@H](CCCNC(=N)N)C(=O)N[C@@H](CCCNC(=N)N)C(=O)N[C@@H](CCC(N)=O)C(=O)N[C@@H](CCCNC(=N)N)C(=O)N[C@@H](CCCNC(=N)N)C(=O)N[C@@H](CCCNC(=N)N)C(N)=O)NC(=O)[C@H](C)NC(=O)[C@H](Cc2csc3ccccc23)NC(=O)[C@H](CCCNC(=N)N)NC(=O)[C@@H](Cc2ccc3ccccc3c2)NC(=O)[C@H](Cc2c[nH]cn2)NC(=O)[C@H](CCC(=O)O)NC1=O`, for which the values for the half-maximal effective concentration (EC50) at hMC1-R and at hMC5-R were 33.8 nM and 89.5 nM, respectively. Moreover, the results for the Kb at hMC3-R and at hMC4-R were 93.6 nM and 4.42 nM, respectively.

In the case of `CCCC[C@H](NC(C)=O)C(=O)N[C@H]1CC(=O)NCCCC[C@@H](C(N)=O)NC(=O)CCNC(=O)[C@H](Cc2c[nH]c3ccccc23)NC(=O)[C@H](CCCNC(=N)N)NC(=O)[C@@H](Cc2ccccc2)NC(=O)[C@H](Cc2c[nH]cn2)NC1=O` [Ac-Nle-c(Asp-His-D-Phe-Arg-Trp-β-Ala-Lys)-NH2], the EC50 at hMC1-R (setting [1]) stood at 0.834 nM; on hMC3-R (setting [2]), 0.145 nM; at hMC4-R (setting [3]), 0.128 nM; on hMC5-R (setting [4]), 2.79 nM.

`CC(=O)N[C@@H](CCCNC(=N)N)C(=O)N[C@H]1CSSC(C)(C)[C@@H](C(N)=O)NC(=O)[C@H](Cc2c[nH]c3ccccc23)NC(=O)[C@H](CCCNC(=N)N)NC(=O)[C@@H](Cc2ccccc2)NC(=O)[C@H](Cc2c[nH]cn2)NC(=O)[C@@H](C)NC1=O` [Ac-Arg-c(Cys-D-Ala-His-D-Phe-Arg-Trp-Pen)-NH2]: the concentration giving a half-maximal response (EC50) at hMC1-R turned out to be 48.3 nM; at hMC3-R it was 13.3 nM; at hMC4-R, 0.79 nM; at hMC5-R it was 10000 nM.

Take `CC(=O)N[C@H]1CSSC[C@@H](C(=O)N2CCC[C@H]2C(=O)N2CCC[C@H]2C(=O)N[C@@H](CCCCN)C(=O)N[C@@H](CC(=O)O)C(=O)NCCC(=O)N[C@@H](Cc2ccc(O)cc2)C(=O)NCC(=O)N[C@@H](CCCNC(=N)N)C(=O)N[C@@H](CCCNC(=N)N)C(=O)N[C@@H](CCCCN)C(=O)N[C@@H](CCCNC(=N)N)C(=O)N[C@@H](CCCNC(=N)N)C(=O)N[C@@H](CCC(N)=O)C(=O)N[C@@H](CCCNC(=N)N)C(=O)N[C@@H](CCCNC(=N)N)C(=O)N[C@@H](CCCNC(=N)N)C(N)=O)NC(=O)[C@H](C)NC(=O)[C@H](Cc2csc3ccccc23)NC(=O)[C@H](CCCNC(=N)N)NC(=O)[C@@H](Cc2ccc3ccccc3c2)NC(=O)[C@H](Cc2c[nH]cn2)NC(=O)[C@H](CCC(=O)O)NC1=O`: the results for the 50% effective concentration (EC50) on hMC1-R and on hMC5-R were 19.8 nM and 158 nM, respectively. The Kb amounted to 37.8 nM on hMC3-R and 8.43 nM at hMC4-R.

With `N=C(N)NCCC[C@@H]1NC(=O)[C@@H](Cc2ccccc2)NC(=O)[C@H](Cc2c[nH]cn2)NC(=O)[C@H](CCC(=O)O)NC(=O)[C@@H](NC(=O)CN2C(=O)N[C@@H](CCCNC(=N)N)C2=O)CSSC[C@@H](C(N)=O)NC(=O)[C@H](Cc2c[nH]c3ccccc23)NC1=O` [Hydantoin(C(O)-(Arg-Gly))-c(Cys-Glu-His-D-Phe-Arg-Trp-Cys)-NH2], the concentration for a half-maximal effect (EC50) was 8.83 nM on hMC1-R (Table 11, read-out: EC50 hMC1); 7.86 nM at hMC3-R (Table 11, read-out: EC50 hMC3); 0.0979 nM on hMC4-R (Table 11, read-out: EC50 hMC4); 4010 nM at hMC5-R (Table 11, read-out: EC50 hMC5).

For the compound `CCCC[C@H](NC(C)=O)C(=O)N[C@H]1CSSC[C@@H](C(N)=O)NC(=O)[C@H](Cc2c[nH]c3ccccc23)NC(=O)[C@H](CCCNC(=N)N)NC(=O)[C@@H](Cc2ccccc2)NC(=O)[C@H](Cc2c[nH]cn2)NC(=O)[C@@H](CC(C)C)NC1=O` [Ac-Nle-c(Cys-D-Leu-His-D-Phe-Arg-Trp-Cys)-NH2], the EC50 is 3.24 nM at hMC1-R (setting [1]), 0.465 nM at hMC3-R (setting [2]), 0.0915 nM on hMC4-R (setting [3]) and 78.5 nM at hMC5-R (setting [4]).

Consider `CC(=O)N[C@H]1CSSC[C@@H](C(=O)N2CCC[C@H]2C(=O)N2CCC[C@H]2C(=O)N[C@@H](CCCNC(=N)N)C(=O)N[C@@H](CC(=O)O)C(=O)NCCC(=O)N[C@@H](CCCNC(=N)N)C(=O)N[C@@H](CCCNC(=N)N)C(=O)N[C@@H](CCCNC(=N)N)C(=O)N[C@@H](CCCNC(=N)N)C(=O)N[C@@H](CCCNC(=N)N)C(=O)N[C@@H](CCCNC(=N)N)C(=O)N[C@@H](CCC(N)=O)C(=O)N[C@@H](CCCNC(=N)N)C(=O)N[C@@H](CCCNC(=N)N)C(=O)N[C@@H](CCCNC(=N)N)C(N)=O)NC(=O)[C@H](C)NC(=O)[C@H](Cc2csc3ccccc23)NC(=O)[C@H](CCCNC(=N)N)NC(=O)[C@@H](Cc2ccc3ccccc3c2)NC(=O)[C@H](Cc2c[nH]cn2)NC(=O)[C@H](CCC(=O)O)NC1=O` (Ac-CEH[d2Nal]R[Bta]ACPPRD[βAla]RRRRRRQRRR-NH2; disulfide 1-8), for which the 50% effective concentration (EC50) on hMC1-R was 86.1 nM; on hMC5-R, 2360 nM. Also, the Kb on hMC3-R worked out at 41.7 nM; on hMC4-R, 19.4 nM.

Consider `CC(=O)N[C@@H](CCC1CCCCC1)C(=O)N[C@H]1CC(=O)NCCCC[C@@H](C(N)=O)NC(=O)CCCNC(=O)[C@H](Cc2c[nH]c3ccccc23)NC(=O)[C@H](CCCNC(=N)N)NC(=O)[C@@H](Cc2ccccc2)NC(=O)[C@H](Cc2c[nH]cn2)NC1=O` [Ac-hCha-c(Asp-His-D-Phe-Arg-Trp-Gaba-Lys)-NH2], for which the EC50 at hMC1-R (setting [1]) was 2.27 nM; at hMC3-R (setting [2]) it was 3.32 nM; at hMC4-R (setting [3]) it was 7.24 nM; on hMC5-R (setting [4]), 415 nM.

(Values after patent publication US20120135923A1, “Use of Melanocortins to Treat Dyslipidemia” (IPSEN PHARMA, S.A.S., priority 2009, published 2012).)
